From patent publication US20260297542A1, “HERBICIDE RESISTANT PLANTS” (SYNGENTA CROP PROTECTION AG, priority 2023, published 2026) come the findings set out here.

Holding throughout (assay): E. coli hemG growth inhibition by herbicide, AtPPO1 variant
What all share (assay type): cell-based
Holding throughout (conditions): read-out: percentage growth inhibition

The target of one assay is T1, AtPPO1 A220C (Arabidopsis thaliana, UniProt P55826, A220C).
T1 construct: expressed in transfected cells; host or cells: E. coli BL21(DE3) hemG (hemG replaced by CmR), pET24a plasmid
T1 sequence (P55826 35-537 A220C): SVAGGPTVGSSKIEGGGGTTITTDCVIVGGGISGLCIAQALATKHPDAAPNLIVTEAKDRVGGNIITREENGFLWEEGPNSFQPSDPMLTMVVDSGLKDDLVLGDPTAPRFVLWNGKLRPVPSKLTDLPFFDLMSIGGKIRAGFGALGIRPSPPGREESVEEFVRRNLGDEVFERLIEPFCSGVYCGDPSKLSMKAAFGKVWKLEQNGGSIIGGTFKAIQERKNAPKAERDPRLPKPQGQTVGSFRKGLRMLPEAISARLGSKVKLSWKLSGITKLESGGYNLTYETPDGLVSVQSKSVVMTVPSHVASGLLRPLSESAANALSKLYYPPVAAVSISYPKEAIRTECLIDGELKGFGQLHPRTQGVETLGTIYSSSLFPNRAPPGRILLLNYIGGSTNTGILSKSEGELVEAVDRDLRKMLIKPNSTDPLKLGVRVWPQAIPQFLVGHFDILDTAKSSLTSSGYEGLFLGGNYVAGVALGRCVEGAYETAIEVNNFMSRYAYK
Put shortly:
(§1)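 AtPPO1 variants from a site-saturation library, codon-optimised and T7-driven in pET24a, were expressed in E. coli BL21(DE3) lacking hemG (hemG replaced by CmR). Growth in Terrific broth with 0.1 mM IPTG plus 6.25 ppm herbicide 0 or E, 0.78 ppm herbicide B, or DMSO was read as OD600 after 24 h at 37° C; inhibition was calculated against the DMSO culture.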

Another assay concerns the target T2, AtPPO1 G64A (Arabidopsis thaliana, UniProt P55826, G64A).
T2 construct: expressed in transfected cells; host or cells: E. coli BL21(DE3) hemG (hemG replaced by CmR), pET24a plasmid
T2 sequence (P55826 35-537 G64A): T1 sequence (P55826 35-537 A220C) with G30A, C186A
Put shortly: as §1

For a further assay, the target named is T3, AtPPO1 P418M (Arabidopsis thaliana, UniProt P55826, P418M).
T3 construct: expressed in transfected cells; host or cells: E. coli BL21(DE3) hemG (pET24a, T7 promoter)
T3 sequence (P55826 35-537 P418M): T1 sequence (P55826 35-537 A220C) with C186A, P384M
Put shortly: as §1

The target of the next assay is T4, AtPPO1 Y361Q (Arabidopsis thaliana, UniProt P55826, Y361Q).
T4 construct: expressed in transfected cells; host or cells: E. coli BL21(DE3) hemG (pET24a, T7 promoter)
T4 sequence (P55826 35-537 Y361Q): T1 sequence (P55826 35-537 A220C) with C186A, Y327Q
The gist of the method: as §1

Changes are numbered by the printed parent chain.

With `C#CCN1C(=O)C(F)(F)Oc2cc(F)c(-n3c(=O)n(C)c(=S)n(C)c3=O)cc21` [Herbicide B, trifludimoxazin], the inhibition (usually the drop in the measured response relative to a control, in per cent) at 0.78 ppm at AtPPO1 A220C turned out to be 15%; on AtPPO1 G64A it was 36%; on AtPPO1 P418M, 12%; at AtPPO1 Y361Q, 19%.

Take `CCOC(=O)[C@]1(C)CC(c2cc(-n3c(=O)n(C)c(=S)n(C)c3=O)c(F)cc2Cl)=NO1` [Herbicide D, ethyl (5S)-3-[2-chloro-5-(3,5-dimethyl-2,6-dioxo-4-thioxo-1,3,5-triazinan-1-yl)-4-fluoro-phenyl]-5-methyl-4H-isoxazole-5-carboxylate]: the inhibition at 6.25 ppm on AtPPO1 A220C amounted to 33%; at AtPPO1 G64A it was 38%; on AtPPO1 P418M it was 25%; at AtPPO1 Y361Q it was 32%.

Regarding `CC(C)N(C)S(=O)(=O)NC(=O)c1cc(-n2c(=O)cc(C(F)(F)F)n(C)c2=O)c(F)cc1Cl` [Herbicide E, saflufenacil], the inhibition at 6.25 ppm on AtPPO1 A220C was determined as 66%; on AtPPO1 G64A, 34%; at AtPPO1 P418M, 64%; at AtPPO1 Y361Q, 0%.
